ChEMBL document CHEMBL1152012, “Synthesis of (+)-biotin derivatives as HIV-1 protease inhibitors” (Bioorg Med Chem Lett, 1996)

What was measured:
MT2 = test: Concentration resulting in 90% inhibition of viral RNA production in HIV-1 infected MT-2 cells; assay type: functional; details: Homo sapiens
[1] = target: Human immunodeficiency virus type 1 protease (Human immunodeficiency virus 1, UniProt Q72874); test: Inhibitory activity against HIV protease enzyme.

| Compound | IC90 (MT2) [µM] | Ki [1] [µM] |
| --- | --- | --- |
| CC(=O)c1cccc(COC(=O)CCCC[C@@H]2SCC3C2N(Cc2cccc(C(C)=O)c2)C(=O)N3Cc2cccc(C(C)=O)c2)c1 (some centres not stated) | 12.5 | 3.4 |
| O=C1N(Cc2cccc(Br)c2)C2CS(=O)(=O)[C@@H](CCCCCO)C2N1Cc1cccc(Br)c1 (some centres not stated) | 80 | 6.9 |
| COC(=O)CCCC[C@H]1C2C(CS1(=O)=O)N(Cc1cccc(Br)c1)C(=O)N2Cc1cccc(Br)c1 (some centres not stated) | > 80 | 4.1 |
| CC(O)c1cccc(CN2C(=O)N(Cc3cccc(C(C)O)c3)C3C2CS[C@H]3CCCCCO)c1 (some centres not stated) | > 98 | 1.9 |
| CC(=O)c1cccc(CN2C(=O)N(Cc3cccc(C(C)=O)c3)C3C2CS[C@H]3CCCCCO)c1 (some centres not stated) | 26 | 3.7 |
| COC(=O)CCCC[C@@H]1SCC2C1N(Cc1cccc(Br)c1)C(=O)N2Cc1cccc(Br)c1 (some centres not stated) | 44 | 0.58 |

The remaining molecules from weak to strong by Ki [1], led by results:

| IC90 (MT2) [µM] | Ki [1] [µM] | Compound |
| --- | --- | --- |
| 46 | 10.3 | O=C1N(Cc2ccccc2)C2CS[C@@H](CCCCCO)C2N1Cc1ccccc1 (some centres not stated) |
| 67 | 2.7 | C/C(=N\O)c1cccc(COC(=O)CCCC[C@@H]2SCC3C2N(Cc2cccc(/C(C)=N/O)c2)C(=O)N3Cc2cccc(/C(C)=N/O)c2)c1 (some centres not stated) |
| 34 | 2.2 | O=C(O)CCCC[C@@H]1SCC2C1N(Cc1cccc(Br)c1)C(=O)N2Cc1cccc(Br)c1 (some centres not stated) |
| 45 | 0.68 | O=C(CCCC[C@@H]1SCC2C1N(Cc1cccc(Br)c1)C(=O)N2Cc1cccc(Br)c1)OCc1cccc(Br)c1 (some centres not stated) |
| 7 | 0.5 | O=C1N(Cc2cccc(Br)c2)C2CS[C@@H](CCCCCO)C2N1Cc1cccc(Br)c1 (some centres not stated) |
